Measured values: patent publication US20260356851A1, “TRICYCLIC COMPOUNDS AND USES THEREOF” (HUTCHMED LIMITED, priority 2023, published 2026)
pIC50: −log10 of the molar value.

What was measured:
Type in all cases: cell-based
[1] = target: T1, pERK1/2 (Thr202/Tyr204), NCI-1H441 (KRAS G12V) (Homo sapiens, UniProt P01116, G12V); assay: Assay of intracellular pERK1/2 (Thr202/Tyr204) phosphorylation in NCI-H441 cells (KRAS G12V); conditions: pERK1/2, 2 days, read-out: NCI-H441 (KRAS G12V) IC50
T1 construct: pERK1/2 HTRF read-out
Procedure, shortened: (§1)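 HTRF detection of Thr202/Tyr204-phosphorylated ERK1/2 (665/615 nm ratio) in lysates from cells treated 2 days with serially 3-fold diluted compound.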

[2] = target: T2, pERK1/2 (Thr202/Tyr204), PANC-1 (KRAS G121D) (Homo sapiens, UniProt P01116, G12D); assay: Assay of intracellular pERK1/2 (Thr202/Tyr204) phosphorylation in PANC-1 cells (KRAS G12D); conditions: pERK1/2, 2 days, read-out: PANC-1 (KRAS G12D) IC50
T2 construct: pERK1/2 HTRF read-out
Procedure, shortened: as §1

[3] = target: T3, pERK1/2 (Thr202/Tyr204), NCI-1H358 (KRAS G12C) (Homo sapiens, UniProt P01116, G12C); assay: Assay of intracellular pERK1/2 (Thr202/Tyr204) phosphorylation in NCI-H358 cells (KRAS G12C); conditions: pERK1/2, 2 days, read-out: NCI-H358 (KRAS G12C) IC50
T3 construct: pERK1/2 HTRF read-out
Procedure, shortened: as §1

T2 sequence (P01116 1-188 isoform P01116-2 G12D): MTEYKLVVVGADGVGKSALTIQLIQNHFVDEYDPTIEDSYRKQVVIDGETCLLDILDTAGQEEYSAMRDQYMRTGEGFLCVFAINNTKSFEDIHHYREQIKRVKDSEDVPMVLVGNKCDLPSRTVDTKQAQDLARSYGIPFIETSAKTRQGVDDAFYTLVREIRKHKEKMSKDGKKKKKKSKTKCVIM
T3 sequence (P01116 1-188 isoform P01116-2 G12C): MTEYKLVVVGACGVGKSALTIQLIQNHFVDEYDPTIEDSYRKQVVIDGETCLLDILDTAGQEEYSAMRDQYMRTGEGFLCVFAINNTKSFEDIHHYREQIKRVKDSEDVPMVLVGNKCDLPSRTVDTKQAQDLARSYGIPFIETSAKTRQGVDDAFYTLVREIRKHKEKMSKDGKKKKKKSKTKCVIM
T1 sequence (P01116 1-188 isoform P01116-2 G12V): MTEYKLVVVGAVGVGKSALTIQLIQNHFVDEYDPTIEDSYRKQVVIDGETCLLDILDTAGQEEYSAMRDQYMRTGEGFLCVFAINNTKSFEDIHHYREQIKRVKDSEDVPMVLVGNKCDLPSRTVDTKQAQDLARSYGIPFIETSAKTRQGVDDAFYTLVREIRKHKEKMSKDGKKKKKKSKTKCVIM

| SMILES | pIC50 [1] | pIC50 [2] | pIC50 [3] |
| --- | --- | --- | --- |
| [2H]C1([2H])CN(C(C)c2cccnc2N)c2nc(OC[C@@]34CCCN3C[C@H](F)C4)nc3c(F)c(-c4cc(N)cc(C)c4C(F)(F)F)nc(c23)O1 (single isomer, unassigned) [Compound 154, 3-((R or S)-1-(5-(5-amino-3-methyl-2-(trifluoromethyl)phenyl)-4-fluoro-2-(((2R,7aS)-2-fluorotetrahydro-1H-pyrrolizin-7a(5H)-yl)methoxy)-8,9-dihydro-10H-7-oxa-1,3,6,10-tetraazacyclohepta[de]naphthalen-10-yl-8,8-d2)ethyl)pyridin-2-amine] | 7.51 | < 7.00 | 7.68 |
| CC(c1cccnc1N)N1c2nc(OC[C@@]34CCCN3C[C@H](F)C4)nc3c(F)c(-c4c(C(F)(F)F)ccc5[nH]ncc45)nc(c23)OC[C@@H]1C (stereo partly drawn) [Compound 297] | 9.00 | 8.52 | 9.30 |
| [2H]C([2H])(Oc1nc2c3c(nc(-c4cc(N)cc(C)c4C(F)(F)F)c(F)c3n1)OCCN2C(C)c1cccnc1N)[C@@H]1C[C@@H](F)CN1C([2H])([2H])[2H] (single isomer, unassigned) [Compound 133, 3-((R or S)-1-(5-(5-amino-3-methyl-2-(trifluoromethyl)phenyl)-4-fluoro-2-(((2S,4R)-4-fluoro-1-(methyl-d3)pyrrolidin-2-yl)methoxy-d2)-8,9-dihydro-10H-7-oxa-1,3,6,10-tetraazacyclohepta[de]naphthalen-10-yl)ethyl)pyridin-2-amine] | 8.00 | < 7.00 | 8.52 |
| CC(c1cccnc1N)N1c2nc(OC[C@@]34CCCN3C[C@H](F)C4)nc3c(F)c(-c4cc(N)c(F)c(Cl)c4C(F)(F)F)nc(c23)OC[C@@H]1C (single isomer, unassigned) [Compound 272, 3-((R or S)-1-((S)-5-(5-amino-3-chloro-4-fluoro-2-(trifluoromethyl)phenyl)-4-fluoro-2-(((2R,7aS)-2-fluorotetrahydro-1H-pyrrolizin-7a(5H)-yl)methoxy)-9-methyl-8,9-dihydro-10H-7-oxa-1,3,6,10-tetraazacyclohepta[de]naphthalen-10-yl)ethyl)pyridin-2-amine] | < 7.00 | < 7.00 | 7.24 |
| CCc1c(F)ccc2cc(O)cc(-c3nc4c5c(nc(OC[C@@]67CCCN6C[C@H](F)C7)nc5c3F)N(C(C)c3cccnc3NC(=O)[C@H](C)N)[C@@H](C)CO4)c12 (stereo partly drawn) [Compound 300] | 8.70 | 9.30 | 9.22 |
| Cc1c(C(F)(F)F)c(-c2nc3c4c(nc(OC[C@@]56CCCN5C[C@H](F)C6)nc4c2F)N(C(C)c2cccnc2N)[C@@H](C)CO3)c2c(C)n[nH]c2c1F (stereo partly drawn) [Compound 380] | 8.70 | 9.00 | 9.00 |
| Cc1cc2[nH]nc(C)c2c(-c2nc3c4c(nc(OC[C@@]56CCCN5C[C@H](F)C6)nc4c2F)N(C(C)c2cccnc2N)[C@@H](C)CO3)c1C(F)(F)F (stereo partly drawn) [Compound 377] | 8.30 | 8.70 | 8.70 |
| [2H]C1([2H])CN(C(C)c2cccnc2N)c2nc(OC[C@@]34CCCN3C[C@H](F)C4)nc3c(F)c(-c4cc(N)cc(C)c4C(F)(F)F)nc(c23)O1 (single isomer, unassigned) [Compound 153, 3-((R or S)-1-(5-(5-amino-3-methyl-2-(trifluoromethyl)phenyl)-4-fluoro-2-(((2R,7aS)-2-fluorotetrahydro-1H-pyrrolizin-7a(5H)-yl)methoxy)-8,9-dihydro-10H-7-oxa-1,3,6,10-tetraazacyclohepta[de]naphthalen-10-yl-8,8-d2)ethyl)pyridin-2-amine] | 9.30 | 8.70 | 9.70 |
| CC(c1cccnc1N)N1CCOc2nc(-c3cc(N)ccc3C(F)(F)F)c(F)c3nc(OC[C@@]45CCCN4C[C@H](F)C5)nc1c23 (single isomer, unassigned) [Compound 53, 3-((R or S)-1-(5-(5-amino-2-(trifluoromethyl)phenyl)-4-fluoro-2-(((2R,7aS)-2-fluorotetrahydro-1H-pyrrolizin-7a(5H)-yl)methoxy)-8,9-dihydro-10H-7-oxa-1,3,6,10-tetraazacyclohepta[de]naphthalen-10-yl)ethyl)pyridin-2-amine] | 6.72 | < 6.00 | 7.06 |
| CC(c1cccnc1N)N1c2nc(OC[C@@H]3C[C@@H](F)CN3C)nc3c(F)c(-c4cc(N)c(F)c(Cl)c4C(F)(F)F)nc(c23)OC[C@@H]1C (stereo partly drawn) [Compound 289] | 9.00 | 8.40 | 9.52 |
| [2H]C1([2H])CC[C@@]2(C([2H])([2H])Oc3nc4c5c(nc(-c6cc(N)cc(C)c6C(F)(F)F)c(F)c5n3)OCCN4C(C)c3cccnc3N)C[C@@H](F)CN12 (single isomer, unassigned) [Compound 116, 3-((R or S)-1-(5-(5-amino-3-methyl-2-(trifluoromethyl)phenyl)-4-fluoro-2-(((2R,7aS)-2-fluorotetrahydro-1H-pyrrolizin-7a(5H)-yl-5,5-d2)methoxy-d2)-8,9-dihydro-10H-7-oxa-1,3,6,10-tetraazacyclohepta[de]naphthalen-10-yl)ethyl)pyridin-2-amine] | 8.05 | 7.64 | 8.40 |

More lines, now with the values ahead:

| pIC50 [1] | pIC50 [2] | pIC50 [3] | SMILES |
| --- | --- | --- | --- |
| 6.98 | 6.41 | 7.42 | CC(c1cccnc1N)N1CCOc2nc(-c3cc(O)cc4ccc(F)c(F)c34)c(F)c3ncnc1c23 (stereo not drawn) [Compound 22] |
| 7.43 | 6.40 | 7.74 | CC(c1cccnc1N)N1CCOc2nc(-c3cc(O)cc(F)c3C3CC3)c(F)c3nc(OC[C@@H]4CCCN4C)nc1c23 (single isomer, unassigned) [Compound 35, 3-(10-((R or S)-1-(2-aminopyridin-3-yl)ethyl)-4-fluoro-2-(((S)-1-methylpyrrolidin-2-yl)methoxy)-9,10-dihydro-8H-7-oxa-1,3,6,10-tetraazacyclohepta[de]naphthalen-5-yl)-4-cyclopropyl-5-fluorophenol] |
| 9.10 | 7.82 | 9.10 | CC(c1cccnc1N)N1CCOc2nc(-c3cc(N)cc(F)c3C(F)(F)F)c(F)c3nc(OC[C@@]45CCCN4C[C@H](F)C5)nc1c23 (stereo partly drawn) [Compound 82] |
| 7.44 | < 7.00 | 7.59 | Cc1cc(N)cc(-c2nc3c4c(nc(OCC5CCOCC5)nc4c2F)N(C(C)c2cccnc2N)CCO3)c1C(F)(F)F (single isomer, unassigned) [Compound 117, (R or S)-3-(1-(5-(5-amino-3-methyl-2-(trifluoromethyl)phenyl)-4-fluoro-2-((tetrahydro-2H-pyran-4-yl)methoxy)-8,9-dihydro-10H-7-oxa-1,3,6,10-tetraazacyclohepta[de]naphthalen-10-yl)ethyl)pyridin-2-amine] |
| < 7.00 | < 7.00 | < 7.00 | CC(c1cccnc1N)N1CCOc2nc(-c3cc(N)cc(F)c3C(F)(F)F)c(F)c3nc(OC[C@@H]4C[C@@H](F)CN4C)nc1c23 (single isomer, unassigned) [Compound 93, 3-((R or S)-1-(5-(5-amino-3-fluoro-2-(trifluoromethyl)phenyl)-4-fluoro-2-(((2S,4R)-4-fluoro-1-methylpyrrolidin-2-yl)methoxy)-8,9-dihydro-10H-7-oxa-1,3,6,10-tetraazacyclohepta[de]naphthalen-10-yl)ethyl)pyridin-2-amine] |
